The test system of one data set is E. coli (ATCC 25922). Type of data set: cell-based. The following applies: at five times MIC.
For the next data set, the system named is C. elegans. The following applies: 50 μM.
Another data set concerns S. aureus (ATCC 6538). The data set is described as follows: MIC, biofilm-forming clinical isolate, broth microdilution. In kind it is cell-based. The following applies: Staphylococcus aureus, ATCC6538. In general terms: In broth dilution the organism is exposed to a series of concentrations in liquid medium.
Data set [1] deals with Mycobacterium tuberculosis H37Ra. The experiment in a line: microbe, parasite or virus in culture.
The subject of data set [2] is Salmonella enteritidis. The experiment in a line: microbe, parasite or virus in culture. Conditions: Salmonella enterica.
For another data set, the system named is A. baumannii BAA-1605. The data set is described as follows: MIC against clinical and drug-resistant isolates. Type of data set: cell-based. Conditions: Acinetobacter baumannii, BAA1605; Table 3, A. baumannii BAA-1605; read-out: Minimum inhibitory concentration (MIC).
The subject of data set [3] is Colistin-resistant P. aeruginosa 1109. The experiment in a line: microbe, parasite or virus in culture. In kind it is cell-based. The following applies: Table 3, colistin-resistant P. aeruginosa 1109, read-out: Minimum inhibitory concentration (MIC).
The subject of a further data set is K. pneumoniae BAA-1706. The data set is described as follows: MIC against clinical and drug-resistant isolates. Conditions: Klebsiella pneumoniae, BAA1706; Table 3, K. pneumoniae BAA-1706; read-out: Minimum inhibitory concentration (MIC). In kind it is cell-based.
For data set [4], the system named is Escherichia coli (ATCC 25922). The experiment in a line: In vitro antimicrobial activity (MIC), OD-based growth. The following applies: ATCC25922.
The subject of data set [5] is S. epidermidis (ATCC 35984). The data set is described as follows: MIC, biofilm-forming clinical isolate, broth microdilution. In kind it is cell-based. Conditions: Staphylococcus epidermidis, ATCC35984.
Data set [6] has as its system Brucella abortus. The data set is described as follows: microbe, parasite or virus in culture.
In a further data set the test system is interleukin-6 (IL-6). The experiment in a line: Anti-inflammatory effect on LPS stimulated macrophages, ELISA. In kind it is cell-based. The following applies: 10 μM, LPS 150 ng/ml, J774A.1, six hours. The procedure:
(§1) The anti-inflammatory effect of compounds on LPS stimulated macrophages, J774A.1 cells was investigated. Next, the cells were stimulated with LPS (150 ng/ml final concentration) in the presence of 10 μM of compounds. Cells that were stimulated with LPS alone and untreated cells served as controls. Cells were incubated for six hours at 37° C. and supernatants from each treatment were collected and stored at −20° C. until use. Cytokine detection of tumor necrosis factor-α (TNF-α) and interleukin-6 (IL-6) in supernatants was done using ELISA as described before following the manufacturer's instructions^24,25. Cytokine levels were expressed as percent change relative to the LPS-stimulated control, using triplicate samples for each treatment condition.
(In general: In an ELISA, binding on a coated surface is turned into a signal by an enzyme label.)

The test system of data set [7] is tumor necrosis factor-α (TNF-α). The description is as above. Type of data set: cell-based. Conditions: 10 μM, LPS 150 ng/ml, J774A.1, six hours. The procedure:
as §1

Data set [8] has as its system Methicillin-resistant S. aureus USA400. The experiment in a line: MIC against clinical and drug-resistant isolates. Conditions: Staphylococcus aureus; Table 3, MRSA USA400; read-out: Minimum inhibitory concentration (MIC). In kind it is cell-based.
Data set [9] has as its system Mycobacterium smegmatis. The experiment in a line: microbe, parasite or virus in culture. The following applies: Mycolicibacterium smegmatis.
Data set [10] deals with Staphylococcus aureus (ATCC 25923). The experiment in a line: In vitro antimicrobial activity (MIC), OD-based growth. Conditions: ATCC25923.
For data set [11], the system named is Shigella flexneri. The experiment in a line: microbe, parasite or virus in culture.
The test system of data set [12] is Vancomycin-resistant E. faecium ATCC 700221. The data set is described as follows: MIC against clinical and drug-resistant isolates. In kind it is cell-based. The following applies: Enterococcus faecium, ATCC700221; Table 3, vancomycin-resistant E. faecium ATCC 700221; read-out: Minimum inhibitory concentration (MIC).
For data set [13], the system named is S. aureus (ATCC 6538) biofilm. The data set is described as follows: Disruption of established biofilms, crystal violet. Type of data set: cell-based. The method, then: (§2) The compounds of the present disclosure were examined for their ability to disrupt bacterial biofilms using the microtiter dish biofilm formation assay. Briefly, overnight cultures of S. aureus (ATCC 6538) and S. epidermidis (ATCC 35984) were diluted 1:100 in TSB supplemented with 1% glucose. Overnight cultures of P. aeruginosa PAO1 and A. baumannii ATCC BAA-1605 were diluted 1:100 in M63 minimal medium supplemented with magnesium sulfate, glucose and casamino acids. Bacterial suspensions were incubated in 96-well plates at 37° C. for 24 hours. After removing media, wells were rinsed with PBS to remove planktonic bacteria before re-filling wells with fresh media. Compounds were added at specific concentrations and plates were incubated at 37° C. for 24 hours. After incubation, wells were washed and biofilms were stained with 0.5% (w/v) crystal violet for 30 minutes. The dye was solubilized with ethanol (95%) and the biofilm mass was quantified at OD595. Experiments were done in triplicate and repeated twice independently.

Another data set has as its system P. aeruginosa PAO1. The data set is described as follows: MIC against clinical and drug-resistant isolates. Conditions: Pseudomonas aeruginosa; Table 3, P. aeruginosa PAO1; read-out: Minimum inhibitory concentration (MIC). Type of data set: cell-based.
Data set [14] has as its system LPS-induced activation of the LAL enzyme (Limulus amoebocyte lysate). The experiment in a line: LPS binding: inhibition of LPS-induced activation of LAL enzyme. In kind it is biochemical. Conditions: at 10 (unit not given).
Data set [15] has as its system intracellular pathogens in J774A.1 cells. Type of data set: cell-based. Conditions: infected J774A.1 macrophages.
Data set [16] deals with Brucella abortus.
For data set [17], the system named is Shigella flexneri.
Data set [18] deals with Salmonella enteritidis.
Data set [19] relates to Mycobacterium tuberculosis H37Ra.
In data set [20] the test system is Mycobacterium smegmatis.
The test system of data set [21] is P. aeruginosa PAO1 biofilm. The experiment in a line: Disruption of established biofilms, crystal violet. In kind it is cell-based. Conditions: 32 μM. The method, then: as §2
Data set [22] concerns A. baumannii ATCC BAA-1605 biofilm. The data set is described as follows: Disruption of established biofilms, crystal violet. Type of data set: cell-based. The following applies: 32 μM. The method, then: as §2
Data set [23] has as its system S. epidermidis ATCC 35984 biofilm. The experiment in a line: Disruption of established biofilms, crystal violet. In kind it is cell-based. The following applies: S. epidermidis mature biofilm, 64 μM. The procedure:
as §2

≈ marks a conversion by molar mass, not a printed value. Read-outs that look alike come from different tables or passages of the source. Non-standard residues stand in square brackets, D forms with d. Residues, ends and D or L forms follow the SMILES beside them. *: point of attachment. Propyl(3-guanidino) = N=C(N)NCCC*; Hyp = O=C(O)[C@@H]1C[C@@H](O)CN1; Isobutyl = CC(C)C*

The results in this text go back to patent US20190038759A1 (priority 2017, published 2019).

A word on the viability: it is the share of living cells, or the viability signal relative to a control. Low values mean more harm to the cells, high ones less harm to the cells.

Take `CC[C@H](C)[C@H](NC(=O)CN)C(=O)NCC(=O)N[C@@H](C)C(=O)N[C@H](C(=O)N[C@@H](CC(C)C)C(=O)N[C@@H](CCCCN)C(=O)N[C@H](C(=O)N[C@@H](CC(C)C)C(=O)N[C@H](C(=O)N[C@H](C(=O)NCC(=O)N[C@@H](CC(C)C)C(=O)N1CCC[C@H]1C(=O)N[C@@H](C)C(=O)N[C@@H](CC(C)C)C(=O)N[C@H](C(=O)N[C@@H](CO)C(=O)N[C@@H](Cc1c[nH]c2ccccc12)C(=O)N[C@H](C(=O)N[C@@H](CCCCN)C(=O)N[C@@H](CCCNC(=N)N)C(=O)N[C@@H](CCCCN)C(=O)N[C@@H](CCCNC(=N)N)C(=O)N[C@@H](CCC(N)=O)C(=O)N[C@@H](CCC(N)=O)C(N)=O)[C@@H](C)CC)[C@@H](C)CC)[C@@H](C)O)[C@@H](C)O)C(C)C)C(C)C` [melittin]: the “release of beta-galactosidase from E. coli” value with E. coli (ATCC 25922) was “substantial level of release”. Also, the “viability of C. elegans” value with C. elegans (after 3 days of treatment) is listed as “no live worms”.
As for `NC[C@H]1O[C@H](O[C@H]2[C@H](O)[C@@H](O[C@H]3O[C@H](CO)[C@@H](O)[C@H](N)[C@H]3O)[C@H](N)C[C@@H]2N)[C@H](O)[C@@H](O)[C@@H]1O` [kanamycin], the MIC in the data set with S. aureus (ATCC 6538) (Table 2, S. aureus clinical isolate that forms biofilms, read-out: MIC) is 4 µM (≈ 1.94 µg/mL); with S. aureus (ATCC 6538) (Table 3, S. aureus ATCC 6538, read-out: Minimum inhibitory concentration (MIC)), 2 µM (≈ 0.969 µg/mL); in data set [1] it was 2 µM (≈ 0.969 µg/mL); with Salmonella enteritidis [2], 16 µM (≈ 7.75 µg/mL); in the data set on A. baumannii BAA-1605 it was 128 µM (≈ 62 µg/mL); in data set [3] (Pseudomonas aeruginosa), over 256 µM. Also, the MIC in the data set on K. pneumoniae BAA-1706 was 256 µM (≈ 124 µg/mL); in data set [4], 2 µM (≈ 0.969 µg/mL); in data set [5] (Table 2, S. epidermis clinical isolate that forms biofilms, read-out: MIC), over 128 µM; in data set [5] (Table 3, S. epidermidis ATCC 35984, read-out: Minimum inhibitory concentration (MIC)), over 256 µM; against Brucella abortus [6], 4 µM (≈ 1.94 µg/mL); in [8], 4 µM (≈ 1.94 µg/mL). Besides, the MIC in the data set with Mycobacterium smegmatis [9] was 8 µM (≈ 3.88 µg/mL); in data set [10], 2 µM (≈ 0.969 µg/mL); in the data set with Shigella flexneri [11], 2 µM (≈ 0.969 µg/mL); in data set [12] it was over 256 µM; in the data set on P. aeruginosa PAO1, over 256 µM. Besides, in the data set with C. elegans (glp-4(bn2) I, sek-1(km4), Caenorhabditis elegans, in vivo, 3 days), the “viability of C. elegans” value is recorded as over 90%. The “decrease of IL-6 levels” value with interleukin-6 (IL-6) was 10%±3.30. In addition, in [7], the “decrease of TNF-α levels” value was 11.41%±4.5. Further, the “disruption of biofilm mass” value in data set [13] (S. aureus mature biofilm, 8 μM) is “approximately 50%”.
For `CN[C@H](CC(C)C)C(=O)N[C@H]1C(=O)N[C@@H](CC(N)=O)C(=O)N[C@H]2C(=O)N[C@H]3C(=O)N[C@H](C(=O)N[C@H](C(=O)O)c4cc(O)cc(O)c4-c4cc3ccc4O)[C@H](O)c3ccc(c(Cl)c3)Oc3cc2cc(c3O[C@@H]2O[C@H](CO)[C@@H](O)[C@H](O)[C@H]2O[C@H]2C[C@](C)(N)[C@H](O)[C@H](C)O2)Oc2ccc(cc2Cl)[C@H]1O` [vancomycin], the “disruption of biofilm mass” value in [13] (S. aureus mature biofilm, 8 μM) was “approximately 50%”.
Consider colistin, for which, in [3], the MIC was 128 µM. The “inhibition of the LAL enzyme” value in data set [14] is on record as 79.76%±4.6. For the same compound, in the data set with interleukin-6 (IL-6), the “decrease of IL-6 levels” value is 95.04%±0.56. The “decrease of TNF-α levels” value in data set [7] is listed as 97.53%±0.32.
Take `CC(C)CO[C@@H]1C[C@@H](C(=O)N2C[C@H](OCCCNC(=N)N)C[C@H]2C(=O)N2C[C@H](OCCCNC(=N)N)C[C@H]2C(=O)N2C[C@H](OCC(C)C)C[C@H]2C(=O)N2C[C@H](OCCCNC(=N)N)C[C@H]2C(=O)N2C[C@H](OCCCNC(=N)N)C[C@H]2C(=O)N2C[C@H](OCC(C)C)C[C@H]2C(=O)N2C[C@H](OCCCNC(=N)N)C[C@H]2C(=O)N2C[C@H](OCCCNC(=N)N)C[C@H]2C(=O)N2C[C@H](OCC(C)C)C[C@H]2C(=O)N2C[C@H](OCCCNC(=N)N)C[C@H]2C(=O)N2C[C@H](OCCCNC(=N)N)C[C@H]2C(=O)N2C[C@H](OCC(C)C)C[C@H]2C(N)=O)N(C(=O)CN)C1` [Example P14LRR] (H-G[Hyp](Isobutyl)[Hyp](Propyl(3-guanidino))[Hyp](Propyl(3-guanidino))[Hyp](Isobutyl)[Hyp](Propyl(3-guanidino))[Hyp](Propyl(3-guanidino))[Hyp](Isobutyl)[Hyp](Propyl(3-guanidino))[Hyp](Propyl(3-guanidino))[Hyp](Isobutyl)[Hyp](Propyl(3-guanidino))[Hyp](Propyl(3-guanidino))[Hyp](Isobutyl)-NH2; N-terminus assumed): the “clearance of intracellular bacteria” value in data set [15] is recorded as “neither kanamycin nor P14LRR is capable of effectively clearing intracellular bacteria”. In the data set “in vivo”, the viability at 72 h, 50 µM is over 90%. Besides, the MIC is 16 µM (≈ 41.9 µg/mL) in the data set on Brucella abortus [16]; 8 µM (≈ 20.9 µg/mL) against Shigella flexneri [17]; 32 µM (≈ 83.8 µg/mL) in the data set on Salmonella enteritidis [18]; 16 µM (≈ 41.9 µg/mL) in [19]; 8 µM (≈ 20.9 µg/mL) in the data set with Mycobacterium smegmatis [20]. In addition, the “inhibition of the LAL enzyme” value in data set [14] is on record as 71.2%±5. In addition, in the data set with interleukin-6 (IL-6), the “decrease of IL-6 levels” value is on record as 81.92%±0.78. Besides, the “decrease of TNF-α levels” value in [7] is reported as 68.4%±5.43. The “disruption of biofilm mass” value in data set [13] (S. aureus mature (24 hour) biofilm, 1 μM) was “not effective”; in [13] (S. aureus mature biofilm, 8 μM), “not effective”; in data set [23], “approximately 50%”. Besides, the disruption of biofilm entry in data set [21] is given as “ineffective”. The “reduction of biofilm mass” value in [22] is listed as 30%.
Turning to `CC(=O)NC[C@H]1CN(c2ccc(N3CCOCC3)c(F)c2)C(=O)O1` [linezolid], the “disruption of biofilm mass” value in data set [13] (S. aureus mature biofilm, 8 μM) was “approximately 50%”.
